Test results: patent US20230349922A1, “H2 Blockers Targeting Liver Macrophages for the Prevention and Treatment of Liver Disease and Cancer” (Université de Strasbourg, priority 2020, published 2023)

Legend:
HRH2/cAMP/PKA axis = assay: PLS assessment upon perturbation of the HRH2/cAMP/PKA axis in Huh7.5.1dif cells; format: cell-based, human; details: 48 hours, histamine 10 μM, 8-CPT cAMP 100 μM, H89 10 μM
Procedure: Histamine, 8-CPT, cAMP and H89 Treatment. Huh7.5.1^dif cells were cultured in DMEM containing 1% FBS and 1% DMSO and incubated with histamine (10 μM) or histamine+nizatidine (10 μM) for 48 hours. Fresh medium containing histamine was replenished every 12 hours. For 8-CPT cAMP and H89, Huh7.5.1^dif cells cultured in DMEM 1% DMSO and 1% FBS were incubated with 8-CPT cAMP (100 μM), H89 (1 μM) or DMSO as a control for 48 hours. Fresh medium containing 8-CPT cAMP was replenished every 12 hours.
Transcriptomic Analysis and PLS Calculation. Gene expression profiling and the 32 gene PLS 32 profiling were performed using 250-500 ng total RNA by using either nCounter Digital Analyzer system (NanoString) or the HumanHT-12 beadarray (Illumina) for the time-course experiments. PLS gene expression was normalized according to 6 housekeeping gene expression using GenePattern genomic analysis toolkits (Hoshida, PLOS ONE, 2010, 5: e15543; Peck et al., Genome Biol., 2006, 7: R61; Reich et al., Nature Genet., 2006, 38: 500-501). Induction or suppression of PLS risk signature was determined as previously reported by using Gene Set Enrichment Analysis (GSEA), implemented in GenePattern genomic analysis toolkits (Hoshida, PLOS ONE, 2010, 5: e15543; Peck et al., Genome Biol., 2006, 7: R61; Reich et al., Nature Genet., 2006, 38: 500-501). PLS was always determined by using CTRL cells as references. Results are presented as simplified heatmaps showing the classification of PLS global status as poor or good prognosis and the significance of induction/suppression of PLS genes (log 10 of false discovery rate (FDR) values). For each experiment, heatmaps show: in the upper part: the classification of PLS global status as poor (orange) or good (green) prognosis, and in the bottom part: the significance of induction (red) or suppression (blue) of PLS poor- or good-prognosis genes. Global status corresponds to the difference between low risk- and high risk-gene expression. The statistic tests, normalized enrichment score (NES) and FDR values are provided for each PLS experiment (poor- and good-prognosis genes variation and global status) in the Source Data file.

natural killer cell = details: patients with transarterial chemoembolization (Nishiguchi et al., 2003); cited from earlier work
HCC = details: one animal model study (Furuta et al., 2008), circumstantial evidence; cited from earlier work
[1] = in vivo; cited from earlier work
[2] = in vivo; cited from earlier work; remark: listed apart in the source
[3] = tested on: prognostic liver signature (PLS); assay: cPLS model: reversal of the prognostic liver signature in HCV-infected Huh7.5.1dif cells; format: cell-based, human; details: Huh7.5.1dif cells infected with HCV Jc1 for 7 days, treated 3 additional days; GSEA
[4] = rodents; cited from earlier work
[5] = tested on: M1-polarized THP1-derived macrophages; assay: RNA-Seq / GSEA of M1-polarized THP1-derived macrophages treated with Oxmetidine; format: cell-based, human
Procedure: M1 Macrophage Polarization and HRH2 Blocker Treatment. THP1 cells were cultured in RPMI 1640 Medium with GlutaMAX™-I supplement and HEPES and supplemented with 10% FBS and gentamycin (0.05 mg/mL). M1 macrophage polarization from THP-1 was performed as previously described (Yeung et al., J. Hepatol., 2015, 62: 607-616). To generate MO THP-1 macrophages, THP1 cells were treated with PMA 320 nM for 24 hours. To generate M1-polarized THP-1 macrophages, THP-1 cells were treated with […] then with 100 ng/ml LPS and 20 ng/ml IFNγ for 18 hours. Cells then were treated with HRH2 blockers 20 μM or DMSO vehicle for 72 hours.
RNA-Seq of M1 macrophages. RNA-Seq was performed on total RNA from MO macrophages, M1-polarized macrophages, and M1-polarized macrophages treated with Oxmetidine, Nizatidine or DMSO (triplicates). RNA-Seq was performed by the Biomedical Sequencing Facility (BSF) CEMM Research Center for Molecular Medicine of the Austrian Academy of Sciences, Vienna (Austria). Briefly, RNA-Seq libraries were generated from 300 ng of total RNA using TruSeq Stranded mRNA Sample Preparation Kit (Illumina, Part Number RS-122-2101). Following purification with poly-T oligo attached magnetic beads, the mRNA was fragmented using divalent cations at 94° C. for 2 minutes. The cleaved RNA fragments were copied into first strand cDNA using reverse transcriptase and random primers. Strand specificity was achieved by replacing dTTP with dUTP during second strand cDNA synthesis using DNA Polymerase I and RNase H. Following addition of a single ‘A’ base and subsequent ligation of the adapter on double stranded cDNA fragments, the products were purified and enriched with PCR (30 seconds at 98° C.; [10 seconds at 98° C., 30 seconds at 60° C., 30 seconds at 72° C.]×12 cycles; 5 minutes at 72° C.) to create the cDNA library. Surplus PCR primers were further removed by purification using AMPure XP beads (Beckman Coulter) and the final cDNA libraries were checked for quality and quantified using 2100 Bioanalyzer (Agilent). Libraries were sequenced on the Illumina HiSeq 4000 as Single-Read 50 base reads following Illumina's instructions. Image analysis and base calling were performed using RTA v2.7.3 and bcl2fastq v2.17.1.14.

[6] = Farup, Scand. J. Gastroenterol., 1988; cited from earlier work
[7] = tested on: patient-derived HCC tumor spheroids; assay: Cell viability (ATP, CellTiter-Glo) of patient-derived HCC tumorspheroids; format: cell-based, human; details: sorafenib 10 μM, 4 days; some of the patient tumors
Procedure: Patient-Derived HCC Tumor Spheroids. Tumorspheroids were generated from liver tissues from HCC patients undergoing surgical resection and dissociated using the Human Tumor Dissociation Kit. Total cell populations including epithelical (i.e., cancer cells/hepatocytes) and NPCs were used to generate multicellular tumorspheroids in Corning® 96-well Black/Clear Bottom Low Flange Ultra-Low Attachment Microplates (Corning). After 48 hours, HCC-derived spheroids were treated with nizatidine 50 μM, sorafenib 10 μM or DMSO vehicle control for 4 days. Fresh medium containing DMSO or drugs was added every day. Cell viability was assessed using CellTiter-Glo® (Luminescent Cell Viability Assay), according to manufacturer's instruction.

[8] = Oxmetidine vs DMSO, 72 hours, GSEA
[9] = Oxmetidine vs DMSO, 72 hours, GSEA, in contrast to Nizatidine
[10] = single gene level, top 10 of Oxmetidine modulated genes

Nc1ncnc2c1nc(Sc1ccc(Cl)cc1)n2[C@@H]1O[C@@H]2COP(=O)(O)O[C@H]2[C@H]1O [8-CPT-cAMP]
PLS poor-prognosis status upon perturbation of the HRH2/cAMP/PKA axis (HRH2/cAMP/PKA axis): induction of the poor-prognosis status of the PLS

CN/C(=N/CCSCc1nc[nH]c1C)NC#N [Cimetidine]
natural killer cell activity in peripheral blood (natural killer cell): improves natural killer cell activity in peripheral blood
anti-HCC effect (HCC): anti-HCC effect

NC(N)=Nc1nc(CSCCN/C=N/S(=O)(=O)c2ccc(Br)cc2)cs1 [Ebrotidine, 4-bromo-N-[[[2-[[[2-[(diaminomethylene)amino]-4-thiazolyl]methyl]thio]ethyl]amino]methylene] benzenesulfonamide]
activity against ethanol-, aspirin- or stress-induced gastric mucosal damage [1]: gastroprotective activity
efficacy for the treatment of gastric or duodenal ulcers or erosive reflux oesophagitis [2]: as effective as Ranitidine

NC(N)=Nc1nc(CSCCC(N)=NS(N)(=O)=O)cs1 [Famotidine, 3-[[2-(diaminomethylideneamino)-1,3-thiazol-4-yl]methylsulfanyl]-N′-sulfamoyl-propanimidamide]
reversal of the poor prognosis status of the prognostic liver signature (PLS) [3]: partial reversal of the PLS

O=S(=O)(NCCNC/C=C/c1ccc(Br)cc1)c1cccc2cnccc12 [H89]
PLS poor-prognosis status upon perturbation of the HRH2/cAMP/PKA axis (HRH2/cAMP/PKA axis): reversed the induction of the PLS poor-prognosis status

Cn1nc(CO)nc1NCCCOc1cccc(CN2CCCCC2)c1 [Lavoltidine]
gastric carcinoid tumors [4]: produced gastric carcinoid tumors in rodents

CC(C)/N=C/Nc1ccc(-c2c[nH]cn2)cc1 [Mifentidine, N-(4-(1H-imidazol-4-yl)phenyl)-N′-(1-methylethyl)methanimidamide]
gastric carcinoid tumors [4]: produced gastric carcinoid tumors in rodents

Cc1[nH]cnc1CSCCNc1ncc(Cc2ccc3c(c2)OCO3)c(=O)[nH]1 [Oxmetidine, 5-(1,3-benzodioxol-5-ylmethyl)-2-[2-[(5-methyl-1H-imidazol-4-yl)methylsulfanyl]ethylamino]-1H-pyrimidin-6-one]
antigen presentation related-pathways [5, 8]: improves antigen presentation related-pathways
pathway mediating inflammation (TNFα, IL6) [5, 8]: strongly suppresses pathway mediating inflammation
IFN response [5, 9]: strong reduction in IFN response
cell metabolism [5, 9]: improvement of cell metabolism
expression of key genes regulating lipid metabolism (ABCG1, ABCA1, SREBF1) [5, 10]: increase in expression of key genes regulating lipid metabolism
pro-inflammatory gene expression (CCL7, CCL2, IL6) [5, 10]: decrease in pro-inflammatory gene expression

Cc1ncc(-c2csc(N=C(N)N)n2)[nH]1 [Zaltidine, 2-[4-(2-methyl-1H-imidazol-5-yl)-1,3-thiazol-2-yl]guanidine]
hepatotoxicity [6]: hepatotoxic

NCCc1c[nH]cn1 [histamine]
PLS poor-prognosis status upon perturbation of the HRH2/cAMP/PKA axis (HRH2/cAMP/PKA axis): Induction of the PLS poor-prognosis status

CNC(=O)c1cc(Oc2ccc(NC(=O)Nc3ccc(Cl)c(C(F)(F)F)c3)cc2)ccn1 [sorafenib]
tumor spheroid response [7]: did not respond
